According to patent US20120202884A1, “INHIBITORS OF CXCR1/2 AS ADJUVANTS IN THE TRANSPLANT OF PANCREATIC ISLETS” (DOMPE' S.P.A., priority 2009, published 2012):

Key:
diabetic C57 mice [1] = assay: Syngeneic islet transplantation in the liver of diabetic mice; format: in vivo
Method: Two different marginal islet mass models, 150 IE (Islet Equivalents) and 250 IE, were used. […] Control animals received continuous s.c. vehicle.
The ability to reach a non-fasting blood glucose level less than 200 mg/dl for two consecutive measurements after islet transplantation was first evaluated.
An intravenous glucose tolerance test (IVGTT) and an oral glucose tolerance test (OGTT) were performed 1 and 3 months after transplantation to evaluate the functionality of the grafted islets. IVGTT was initiated after a 16-hour fast; the mice were given glucose (0.5 g/kg) by tail vein injection. Blood samples were obtained 0, 1, 5, 15, 20, 30 and 60 minutes after injection and were used to determine glucose concentrations. From the IVGTT, glucose tolerance was quantified from the glucose elimination constant (KG; expressed as percent elimination of glucose per minute) as the reduction in circulating glucose between 1 and 15 min (KG1-15) after intravenous administration, following the logarithmic transformation of the individual plasma glucose values. A similar estimation was performed for the total 1- to 60-min glucose disappearance rate (KG 1-60). This parameter indicates the rate of glucose disappearance during the whole test. OGTT was initiated after a 4-hour fast; the mice were given glucose (1 g/kg) by oral gavage. Blood samples were obtained 0, 10, 20, 30, 60, 90 and 120 minutes after glucose administration and used to determine glucose concentrations. The area under the curve (AUC) for glucose during OGTT was calculated using the trapezoidal method (baseline=0 min). […] The data are reported as scatter plots. […] Upper and lower panels respectively report the data 1 and 3 months after transplantation.
Acute liver damage was quantified by circulating levels of alanine aminotransferase (ALT) 24 h and 48 h after Transplantation.

[2] = system: intrahepatic leukocyte (IHL) population; assay: Intrahepatic leukocyte population after allogeneic intrahepatic islet transplantation (flow cytometry); format: in vivo, mice
Method: The intrahepatic leukocyte population was analysed in the presence or in the absence of Reparixin treatment after allogeneic intrahepatic islet transplantation in mice. […] The mice were sacrificed at day 0, +1, +3, +5, +7, +10, +14 after islet transplantation and the livers were weighed at the time of autopsy. Single cell suspensions were prepared from two liver lobes of known weight and analysis of the intrahepatic leukocyte (IHL) population was performed flow cytometry. The cells were surface stained with fluorescein isothiocyanate (FITC)-, phycoerythrin (PE)- or allophycocyanin (APC)-labeled anti-CD4, anti-CD8, anti-CD3, anti CD19, anti-TCR, anti-NK1.1, anti CD11, anti-Gr-1, anti-CD11b, and anti-CD11c Abs (PharMingen, San Diego, Calif.) for the detection of Gr-^+/CD11b^+/CD11c^− cells (mostly PMNs), […] (mostly T helper cell), CD8^+/TCR^+ cells (mostly CTLs), […], NK1.1^+/CD3^+ cells (NKT cells) and Gr-1^−/CD11b^−/CD11c^− (mostly macrophages), CD115+/CD11b+/Cd11c− (mostly monocytes), CD11c+/CD11b+/Gr1− (mostly dendritic cells), CD19 (mostly B lymphocytes). Samples were acquired on a FACSCalibur flow cytometer and the data were analyzed using CELLQuest software (Becton Dickinson Immunocytometry Systems, San Jose, Calif.). In a second set of experiments, CXCR2 and CXCR1 expression on IHL Population was evaluated at the time point in which leucocyte infiltration gained the highest degree of infiltration.

diabetic C57 mice [3] = assay: Allogeneic islet transplantation in bone marrow of diabetic mice; format: in vivo; settings: 400 EI Balb/c islets in bone marrow; Reparixin 8 mg/h/kg s.c. continuous infusion 7 days from day -1
Method: A control group of mice was treated with vehicle.

diabetic C57 mice [4] = assay: Allogeneic islet transplantation in the liver of diabetic mice; settings: for Odds ratio, Multivariate Cox Regression Analysis of loss of graft survival: Reparixin 95% CI 0.099-0.64, p=0.004, Rapamycin 95% CI 0.562-2.45, p=0.67; for Odds ratio, Multivariate Cox Regression Analysis of reaching primary function: allogeneic transplant, Reparixin 95% CI 0.79-2.99, p<0.202, Rapamycin 95% CI 0.62-2.15, p<0.62; for probability to reach the primary function (glycaemia<250 mg/dl) / median time to reach the primary function (glycaemia<250 mg/dl): allogeneic, 400 IE in liver; for probability to reach the primary function (glycaemia<250 mg/dl): Reparixin 5.28 mg/kg/h s.c. day -1 to 7, Rapamycin i.p. 0.3 then 0.15 mg/kg to day 14, vehicle 44%; for median time to reach the primary function (glycaemia<250 mg/dl): vehicle 2 days; for median survival time (graft): mice that achieved primary function, vehicle 8±0.5 days
Method: Islets from 12 week old Balb/c mice were transplanted in the liver of diabetic C57 mice (alloxan, glycaemia>450 mg/dl). […] In both cases 400 IE were transplanted.
The ability to reach primary function, defined as non-fasting blood glucose levels less than 250 mg/dl for 2 consecutive measurements after islet transplantation and the time to rejection defined as 2 consecutive non-fasting blood glucose readings greater than 300 mg/dL were first evaluated.

[5] = 1 and 3 months after transplantation, versus control mice

Structure (SMILES) | glucose elimination constant between 1 and 15 min (KG1-15), IVGTT (diabetic C57 mice [1]; [5]) | glucose elimination constant between 1 and 60 min (KG1-60), IVGTT (diabetic C57 mice [1]; [5]) | AUC for glucose during OGTT (diabetic C57 mice [1]; 1 and 3 months post transplant, versus control mice) | circulating levels of alanine aminotransferase (ALT), acute liver damage (diabetic C57 mice [1]; 24 h and 48 h after transplantation, 150 or 250 IE) | probability to reach euglycaemia (<200 mg/dl) (diabetic C57 mice [1]; syngeneic C57 islets, 150 or 250 IE in liver, Reparixin 8 mg/kg/h s.c. continuous infusion day -1 to 6 or 13, vehicle 35.1%) [%] | median time to reach euglycaemia (<200 mg/dl) (diabetic C57 mice [1]; syngeneic C57 islets, 150 or 250 IE in liver, Reparixin 8 mg/kg/h s.c. continuous infusion, vehicle 50 days) [days] | Odds ratio, Multivariate Cox Regression Analysis of reaching euglycaemia (diabetic C57 mice [1]; syngeneic transplant, 95% CI: 1.1-6.1, p<0.021) | circulating levels of white blood cells, red blood cells and platelets (diabetic C57 mice [1]; syngeneic transplant, data not shown) | leucocytes recruitment and infiltration in the liver ([2]; allogeneic transplant 400 EI, Reparixin 8 mg/h/kg s.c. continuous infusion 7 days from day -1) | PMNs in the liver ([2]; allogeneic transplant, Reparixin 8 mg/h/kg s.c., FIG. 8) | NKT cells in the liver ([2]; allogeneic transplant, Reparixin 8 mg/h/kg s.c., FIG. 9) | outcome (primary function and time to rejection) (diabetic C57 mice [3]) | Odds ratio, Multivariate Cox Regression Analysis of loss of graft survival (diabetic C57 mice [4]) | Odds ratio, Multivariate Cox Regression Analysis of reaching primary function (diabetic C57 mice [4]) | probability to reach the primary function (glycaemia<250 mg/dl) (diabetic C57 mice [4]) [%] | median time to reach the primary function (glycaemia<250 mg/dl) (diabetic C57 mice [4]) [days] | time to rejection (diabetic C57 mice [4]; mice that achieved primary function post-transplant, rejection = 2 consecutive non-fasting glucose readings >300 mg/dL) | median survival time (graft) (diabetic C57 mice [4]) [days]
CC(C)Cc1ccc([C@@H](C)C(=O)NS(C)(=O)=O)cc1 [Reparixin, R(−)-2-[(4-isobutylphenyl)propionyl]-methanesulfonamide] | significantly increased | significantly increased | remains lower than that of the control mice | not affected | 50 | 7 | 2.6 | no difference | reduces | significantly affected | significantly affected | improved | 0.252 | 2.5 | 72 | 1 | significantly increased | 12 ± 0.6
CO[C@H]1C[C@@H]2CC[C@@H](C)[C@@](O)(O2)C(=O)C(=O)N2CCCC[C@H]2C(=O)O[C@H]([C@H](C)C[C@@H]2CC[C@@H](O)[C@H](OC)C2)CC(=O)[C@H](C)/C=C(\C)[C@@H](O)[C@@H](OC)C(=O)[C@H](C)C[C@H](C)/C=C/C=C/C=C/1C [Rapamycin, reference compound] | – | – | – | – | – | – | – | – | – | – | – | – | 1.173 | 1.1 | 73 | 1 | – | 8 ± 0.6
